From patent publication US9034812B2, “Compositions and methods for treating biofilms” (Ohio University, priority 2011, dated 2015)

How the values were obtained:
[1] = test system: D. vulgaris (ATCC 7757) SRB biofilm; assay: Prevention of SRB biofilm establishment on carbon steel coupons (Example 1): sessile cell count and SEM; type: cell-based, Desulfovibrio vulgaris; details: alone; for Sessile SRB cells on coupon surface (SEM), biofilm prevention: 7-day coupons
Method: D. vulgaris (ATCC 7757), a laboratory SRB strain, was cultured in ATCC 1249 medium. Quarter strength medium with only four key ingredients, i.e., MgSO4, sodium lactate, Fe(NH4)2(SO4)2 and yeast extract at concentrations ¼ of those in the full ATCC 1249 medium was also used to simulate a less nutritious environment. […] SRB culture media were sterilized in an autoclave and then deoxygenated using N2 (filter sterilized) sparging. SRB cells were enumerated using an SRB test kit (Sani-Check® Product #100, Biosan Laboratories, Warren, Mich., USA). […] Below this cell count, it is hard to catch an individual cell under the light microscope. The Most Probable Number (MPN) enumeration method is a standard method to estimate very low cell counts. MPN succeeds by growing the cells first and correlating the cell counts with the appearance of black color (due to FeS produced by SRB). […] The SRB test kit used in this example is equivalent to an MPN method using a solid medium instead of a liquid medium.
Anaerobic vials used in this example were 125 ml (Catalog No. 223748, Wheaton Industries Inc., 143 Millville, N.J., USA), each filled with 100 ml of culture medium. A glovebox filled with filter-sterilized N2 provided an anaerobic environment. To mitigate any possible oxygen leaks, 100 ppm L-cysteine (Fisher Scientific, Pittsburgh, Pa., USA), an oxygen scavenger, was added to the culture media. Thin disk shaped C1018 carbon steel coupons with a top disk surface area of 1.12 cm^2 were polished with 200, 400, and 600 grit abrasive papers progressively. Only the top surface of each coupon was exposed to the culture medium. The rest of the surfaces were coated with inert Teflon. After polishing, the coupons were weighed. The coupons were cleaned using isopropanol and then dried under UV light for 15 minutes.
Three duplicate coupons and 1 ml of a 3-day old SRB seed culture were added to each anaerobic vial. The initial SRB cell concentration in each vial immediately after inoculation was approximately 10^6 cells/ml. After adding treatment chemical(s) following inoculation, the vials were sealed and then incubated at 37° C. After 7 days of incubation, the biofilm on a coupon surface was observed under SEM. The procedure to prepare a coupon for SEM observation of a biofilm was described by Wen et al., Inter. […] Au coating of the biofilm covered coupon was necessary for SEM because the biofilm was not conductive. An SEM image was taken for the spot with most sessile cells after screening three duplicate coupons. A special control coupon was inserted in a vial containing the culture medium without biocide treatment and incubated without inoculation. This abiotic control would indicate yellow rust if an oxygen leak occurred. Its surface was also scanned for sessile cells under SEM for possible microbial contamination. Care was also taken to identify sessile cells that looked different from D. vulgaris during biofilm observation under SEM, which would indicate microbial contamination.
To obtain the average sessile cell density on a coupon surface, the sessile cells were first scraped off from the surface of a duplicate coupon onto a brush-like dipstick of the SRB test kit handled with sterile tweezers. The dipstick was wetted with deoxygenated water before scraping. Most of the sessile cells were collected by the dipstick. […]

[2] = test system: mature D. vulgaris (ATCC 7757) SRB biofilm; assay: Removal of established SRB biofilm, 1-h and 3-h simulated slug treatment (Example 2); type: cell-based, Desulfovibrio vulgaris; details: alone
Method: The full-strength ATCC 1249 medium was used to grow SRB biofilms on coupon surfaces first. […] In the anaerobic chamber, the coupons were taken out and rinsed with phosphate buffered saline (PBS) buffer to remove loose planktonic cells. The coupons were then placed into petri dishes containing treatment chemicals in a water solution. Some coupons were treated for 1 h and some for 3 h. This simulated slug treatment with a contact time lasting 1 and 3 h, respectively, as in the situation when a biocide slug flows inside a pipeline. Flow effect was not considered here. Exposing SRB cells on a coupon from the ATCC 1249 medium to a water solution lacking salt ions might cause osmotic shock that could interfere with the biocide efficacy evaluation. Instead of using PBS buffer commonly used in cell cultures, two salts in the original medium, MgSO4 and (NH4)2Fe(SO4)2, were added to the 1 and 3-h treatment solutions at ¼ of their corresponding concentrations in the full-strength ATCC 1249 medium. The treated coupons were then removed and examined for sessile SRB cells. The diluted medium was used here to simulate the residual nutrients retained by the local biofilms when the bulk pipeline or tank fluid is displaced by the biocide solution during a field treatment.
(§1) The procedure to prepare a coupon for SEM observation of a biofilm on a coupon surface was described by Wen et al., Inter. Biodeter. Biodegr., (2009), 63:1102-1106. […] Thus, an SEM image was taken after searching for a spot with the most sessile cells. The cells seen in the SEM images should not be used to count the sessile cells because of uneven distribution. Instead, the Most Probable Number (MPN) method was used to enumerate sessile cells. SEM images could be used as qualitative visual confirmation of biofilm removal.
(§2) Viable D. vulgaris cells can be seen as motile cells under a light microscope at 400×. Thus they can be counted using a hemocytometer. However, this method has a detection limit of 5×10^4 cells/ml minimum at 400× magnification. It is a standard practice to enumerate very low cell counts using the semi-quantitative most probable number (MPN) method with a liquid culture medium or a solid medium. The accuracy of MPN is typically 1 log in cell numbers. Thus, it takes at least a 2-log reduction to assure the efficacy of a biocide system. In this example, the sessile cells on a coupon were scraped and collected in a test tube by using the brush-like dipstick that was part of an SRB test kit (Sani-Check® Product #100 from Biosan Laboratories, Warren, Mich., USA). The dipstick was then soaked in 10 ml sterilized distilled water and vortexed for 30 s. Finally, the dipstick was inserted into the test kit's vial containing a solid SRB culture medium. The SRB sessile cell concentration was based on how long it took for the black color (FeS) to appear in the medium around the dipstick. The tests were repeated three separate times. Each time, two coupons were used for sessile SRB cell counting.

[3] = test system: D. vulgaris (ATCC 7757) SRB biofilm; assay: Prevention of SRB biofilm establishment (Example 2): sessile cell count (MPN) and SEM; type: cell-based, Desulfovibrio vulgaris; details: 100 ppm, alone, 7 days; for Sessile SRB cells on coupon (SEM), biofilm prevention: full-strength medium
Method: D. vulgaris (ATCC 7757), a common SRB strain, was used in this example. Before inoculation, the culture media were autoclave sterilized and then sparged with filter-sterilized nitrogen for at least 45 minutes to remove dissolved oxygen. SRB growth was carried out in 125 ml anaerobic vials (Catalog No. 223748, Wheaton Industries Inc., Millville, N.J., USA) filled with 100 ml culture medium. In the test, 1 ml SRB seed culture was used to inoculate each anaerobic vial to achieve an SRB concentration of 10^6 cells/ml right after inoculation. The full-strength ATCC 1249 medium with 200 ppm Fe^2+ was used to grow SRB biofilm on coupon surfaces.
It was neutralized to pH 7.0 by adding a sodium hydroxide solution. Coin shaped C1018 carbon steel coupons with a top exposed surface area of 1.12 cm^2 were used as substratum for SRB growth. The side and bottom surfaces were coated with inert Teflon. The top surface was polished sequentially by 200, 400, and 600 grit abrasive papers. Nitrogen sparging was used to remove dissolved oxygen in all liquids and to provide an anaerobic environment in a glove box. 100 ppm L-cysteine (Fisher Scientific, Pittsburgh, Pa., USA) was added to the culture media as an oxygen scavenger to mitigate any possible oxygen leak.
One milliliter of SRB seed culture was added at the beginning of the tests and the vials were sealed and incubated at 37° C. without shaking. After 7 days, the coupons were taken out and examined for sessile SRB cells.
as §1, §2

[4] = test system: D. vulgaris (ATCC 7757) SRB biofilm; assay: Mitigation of MIC pitting and weight loss of C1018 carbon steel coupons (Example 1); design: species or system Desulfovibrio vulgaris; details: 50 ppm, alone; 7 days
From the text: The coupons for SEM used in above in “Prevention of Biofilm Establishment” were reused to observe the MIC pitting after their biofilms and Au coating were removed using the Clark's solution. Coupon weight loss data were obtained from another duplicate coupon in each vial. The coupon surface was cleaned to remove biofilms and mineral deposits using the Clark's solution before weighing.

CC(C)C[C@@H](N)C(=O)O [D-leucine]
Sessile cell count ([1]; 500 ppm, after 7 days, ATCC 1249 medium): ≧10^5 cells/cm^2

CSCC[C@@H](N)C(=O)O [D-methionine]
Sessile SRB cells on coupon surface (SEM), biofilm prevention ([1]; 500 ppm): had sessile SRB cells on their surfaces

N[C@H](Cc1c[nH]c2ccccc12)C(=O)O [D-tryptophan]
Sessile SRB cells on coupon surface (SEM), biofilm prevention ([1]; 100 ppm): ineffective

N[C@H](Cc1ccc(O)cc1)C(=O)O [D-tyrosine]
Sessile SRB cells on coupon (SEM), 1-h shock treatment ([2]; 100 ppm, 1 h): left many sessile cells on the coupon surface | Sessile cell count for 3-h treatment ([2]; 100 ppm): ≧10^5 cells/cm^2 | Reduction of SRB sessile cells versus untreated control [3]: 1 log | Sessile SRB cells on coupon (SEM), biofilm prevention [3]: completely ineffective | Sessile SRB cells on coupon surface (SEM), biofilm prevention ([1]; 10 ppm): not effective in preventing SRB biofilm formation

Tetrakis hydroxymethyl phosphonium sulfate [THPS]
Normalized coupon weight loss (average) [4]: 0.65 mg/cm^2 | Reduction of sessile SRB concentration versus control ([2]; 50 ppm, 1 h): 2 log | Sessile SRB cells on coupon (SEM), 1-h shock treatment ([2]; 50 ppm, 1 h): numerous sessile SRB cells remained | Sessile cell count for 1-h treatment ([2]; 50 ppm, 1 h): ≧10^4 cells/cm^2 | Sessile cell count for 3-h treatment ([2]; 50 ppm): ≧10^3 cells/cm^2 | Kill of SRB sessile cells [3]: 99.999% | Reduction of SRB sessile cells versus untreated control [3]: 5 log | Sessile SRB cells on coupon (SEM), biofilm prevention [3]: partially effective | Sessile SRB cells on coupon surface (SEM), biofilm prevention ([1]; 100 ppm): had sessile SRB cells on their surfaces
